pIC50: −log10 of the molar value. Some results are limits rather than exact numbers.

For this experiment, the target named is T1, human recombinant ROCK II (Homo sapiens, UniProt O75116).
T1 construct: recombinant human ROCK-II residues 11-552; His6 (N); purchased Upstate Ltd., Dundee, UK
T1 sequence (O75116 11-552): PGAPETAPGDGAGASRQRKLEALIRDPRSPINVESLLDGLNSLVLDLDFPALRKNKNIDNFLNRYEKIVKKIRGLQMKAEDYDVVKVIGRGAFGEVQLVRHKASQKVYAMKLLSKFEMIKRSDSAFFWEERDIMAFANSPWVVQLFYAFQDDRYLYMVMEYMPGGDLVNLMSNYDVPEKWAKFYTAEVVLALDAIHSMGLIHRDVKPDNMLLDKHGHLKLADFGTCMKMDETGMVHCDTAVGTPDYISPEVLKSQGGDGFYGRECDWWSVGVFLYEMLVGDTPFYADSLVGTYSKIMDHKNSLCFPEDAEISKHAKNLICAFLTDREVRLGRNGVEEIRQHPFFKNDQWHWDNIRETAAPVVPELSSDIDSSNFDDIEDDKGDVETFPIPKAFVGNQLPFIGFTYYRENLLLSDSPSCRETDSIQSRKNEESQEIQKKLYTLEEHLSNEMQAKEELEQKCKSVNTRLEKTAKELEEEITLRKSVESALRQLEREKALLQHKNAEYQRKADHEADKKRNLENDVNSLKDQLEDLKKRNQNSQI
As to the kind of experiment: Determination of Rho kinase inhibition (Caliper peptide phosphorylation assay). It is filed as biochemical. Conditions: negative decadal logarithm of the IC50; ROCK II residues 11-552, fluorescein peptide substrate, ATP, 60 min at 32° C.; salt or free base as obtained in the examples. How it is done:
Determination of Rho Kinase Inhibition
To measure Rho-kinase inhibition, IC50 values were determined according to the following protocol:
Active human recombinant ROCK II (N-terminal His6-tagged recombinant human ROCK-II residues 11-552) was purchased from Upstate Ltd., Dundee, UK. The peptide substrate, Fluorescein-AKRRRLSSLRA-COOH, was obtained from JPT Peptide Technologies, Berlin, Germany. Adenosine-5′-triphosphate (ATP), bovine serum albumine (BSA), dimethylsulphoxide (DMSO), 4-(2-Hydroxyethyl)piperazine-1-ethanesulfonic acid (Hepes), Brij-35 and dithiothreitol (DTT) were purchased from Sigma-Aldrich, Munich, Germany. Tris(hydroxymethyl)-aminomethane (Tris), magnesium chloride, NaOH, 1M HCl and EDTA were obtained from Merck Biosciences, Darmstadt, Germany. “Complete” protease inhibitor was from Roche Diagnostics, Mannheim, Germany.
Test compounds were diluted to the appropriate concentrations in buffer 1 (25 mM Tris-HCl, pH 7.4, 5 mM MgCl2, 2 mM DTT, 0.02% (w/v) BSA and 3% DMSO). The ROCK II enzyme was diluted to a concentration of 100 ng/ml in buffer 2 (25 mM Tris-HCl, pH 7.4, 5 mM MgCl2, 2 mM DTT and 0.02% (w/v) BSA). The peptide substrate and ATP were diluted to concentrations of 3 μM and 120 μM, respectively, in the buffer 2. Two μl of the compound solution were mixed with 2 μl of the diluted enzyme in a 384-well small volume microtiter plate (Greiner, Bio-One, Frickenhausen, Germany), and the kinase reaction was initiated by addition of 2 μl of the solution containing peptide substrate and ATP. After 60 min incubation at 32° C., the reaction was stopped by addition of 20 μl of a solution containing 100 mM Hepes-NaOH, pH 7.4, 0.015% (v/v) Brij-35, 45 mM EDTA and 0.227% chip coating reagent 1 (Caliper Lifescience Inc, Hopkinton, Mass.). Phosphorylation of the substrate peptide was then detected on a Caliper 3000 instrument essentially as described by Pommereau et al (J. Biomol. Screening 9(5), 409-416, 2004). Separation conditions were as follows: Pressure −1.3 psi, upstream voltage −1562 V, downstream voltage −500 V, sample sip time 200 ms. Positive controls (buffer 1 instead of compound) and negative controls (buffer 1 instead of compound and buffer 2 instead of ROCK II) were run in parallel on each plate.
The following products/compounds were tested in said assay by using the respective form (salt or free base) obtained as in the examples described above and the following activities were measured.
For `C[C@@H](N)C(=O)N1CCC(Oc2cc3cc[nH]c(=O)c3cc2Cl)CC1` [Example 11, 6-[1-(2-Amino-propionyl)-piperidin-4-yloxy]-7-chloro-2H-isoquinolin-1-one], the negative logarithm of the IC50 (pIC50) was at least 6.00.
Regarding `O=C([C@@H]1CCCN1)N1CCC(Oc2cc3cc[nH]c(=O)c3cc2Cl)CC1` [Example 15, 7-Chloro-6-[1-((S)-pyrrolidine-2-carbonyl)-piperidin-4-yloxy]-2H-isoquinolin-1-one], the pIC50 is at least 6.00.
Then `CN(C)CC(=O)N1CCC(Oc2cc3cc[nH]c(=O)c3cc2Cl)CC1` [Example 16, 7-Chloro-6-[1-(2-dimethylamino-acetyl)-piperidin-4-yloxy]-2H-isoquinolin-1-one], with at least 6.00; and `NC1(C(=O)N2CCC(Oc3cc4cc[nH]c(=O)c4cc3Cl)CC2)CC1` [Example 19, 6-[1-(1-Amino-cyclopropanecarbonyl)-piperidin-4-yloxy]-7-chloro-2H-isoquinolin-1-one], with 5.00 to 6.00; and `N[C@@H](Cc1ccc(Cl)cc1)C(=O)N1CCC(Oc2cc3cc[nH]c(=O)c3cc2Cl)CC1` [Example 22, 6-{1-[(S)-2-Amino-3-(4-chloro-phenyl)-propionyl]-piperidin-4-yloxy}-7-chloro-2H-isoquinolin-1-one], with at least 6.00.
Take `NCC(=O)N1CCC(Oc2ccc3c(=O)[nH]ccc3c2)CC1` [Example 24, 6-[1-(2-Amino-acetyl)-piperidin-4-yloxy]-2H-isoquinolin-1-one]: the pIC50 was at least 6.00.
For `CCCNC(=O)CN1CCC(Oc2cc3cc[nH]c(=O)c3cc2Cl)CC1` [Example 46, 2-[4-(7-Chloro-1-oxo-1,2-dihydro-isoquinolin-6-yloxy)-piperidin-1-yl]-N-propyl-acetamide], the negative logarithm of the IC50 (pIC50) was at least 6.00.
To `O=c1[nH]ccc2cc(OC3CCCNCC3)c(Cl)cc12` (stereo not drawn) [Example 55, 6-(Azepan-4-yloxy)-7-chloro-2H-isoquinolin-1-one] belongs at least 6.00; to `O=c1[nH]ccc2cc(OC3CNC3)c(Cl)cc12` [Example 58, 6-(Azetidin-3-yloxy)-7-chloro-2H-isoquinolin-1-one], at least 6.00.
For `O=c1[nH]ccc2cc(O[C@@H]3CCN(Cc4ccccc4)C3)c(Cl)cc12` [Example 66, 6-((R)-1-Benzyl-pyrrolidin-3-yloxy)-7-chloro-2H-isoquinolin-1-one], the pIC50 was at least 6.00.
`O=c1[nH]ccc2cc(O[C@H]3CCN(Cc4ccccc4)C3)c(Cl)cc12` [Example 67, 6-((S)-1-Benzyl-pyrrolidin-3-yloxy)-7-chloro-2H-isoquinolin-1-one]: the pIC50 is 5.00 to 6.00.
Take `Cc1cc2c(=O)[nH]ccc2cc1OC1CCCNCC1` (stereo not drawn) [Example 68, 6-(Azepan-4-yloxy)-7-methyl-2H-isoquinolin-1-one]: the pIC50 is at least 6.00.
On to `Cc1cc2c(=O)[nH]ccc2cc1OC[C@@H]1CCNC1` [Example 69, 7-Methyl-6-((R)-1-pyrrolidin-3-ylmethoxy)-2H-isoquinolin-1-one], for which the pIC50 is at least 6.00.
To `Cc1cc2c(=O)[nH]ccc2cc1O[C@H]1CCNC1` [Example 70, 7-Methyl-6-((S)-pyrrolidin-3-yloxy)-2H-isoquinolin-1-one] belongs at least 6.00.
With `Cc1c[nH]c(=O)c2ccc(OC3CCN(C[C@@H](N)CO)CC3)c(F)c12` [Example 75, 6-[1-((R)-2-Amino-3-hydroxy-propyl)-piperidin-4-yloxy]-5-fluoro-4-methyl-2H-isoquinolin-1-one], the pIC50 was 5.00 to 6.00.
